The test concerns murine neural precursor cells (neurosphere cultures). Kind of test: HTS of LOPAC library against secondary neurosphere cultures, MTT proliferation assay at 3 μM, day 7 (z score, P value). The format is cell-based, mouse. A general note: Tetrazolium dyes change colour on reduction, which living cells bring about.
Setting [1] is: primary LOPAC screen, 3 μM, MTT, neurosphere proliferation.
Setting [2] is: yes/no: significantly inhibited neurosphere proliferation in the primary screen.
The mark [3] stands for this setting: LOPAC primary screen, neurosphere MTT proliferation, 3 μM, day 7.
Setting [4] is: yes/no: significantly inhibited neurosphere proliferation (P<0.01) in the primary screen.
Setting [5] is: LOPAC library screen, 3 μM, MTT, secondary neurosphere cultures, day 7.
The mark [6] stands for this setting: LOPAC screen, neurosphere MTT proliferation, 3 μM, day 7.
Where [7] appears, read: yes/no: significantly inhibited neurosphere proliferation (P<0.01) in primary screen.
Where [8] appears, read: yes = significantly inhibited neurosphere proliferation (P<0.01) in the primary screen.
Where [9] appears, read: LOPAC library screen at 3 μM, secondary neurosphere cultures, MTT.
Setting [10] is: yes/no: significantly inhibited neurosphere proliferation in primary screen.

This note sets out measurements from US8058243B2, “Method for treating a brain cancer with ifenprodil” (HSC Research and Development Limited Partnership, priority 2006, dated 2011).

Structures can show the parent of a compound that is named as a salt. Where two headings read alike, the source gives them in different places.

Regarding `C=CC(N)CCC(=O)O` (racemic) [(±)-gamma-Vinyl GABA], the Z score under setting [1] is given as −0.701. The Activity entry under setting [2] was “no”.
`CCCN(CCC)C1Cc2cc(OC)c(OC)cc2C1.O=C(O)/C=C\C(=O)O` [U-99194A meleate] came in with a Z score under setting [3] of 1.255. Besides, the Activity result under setting [4] was “no”.
With `CNCCc1ccc(O)c(O)c1.Cl` [N-Methyldopamine hydrochloride], the “Z Score” value under setting [5] is given as −1.219. The molecule further displayed a Z score under setting [6] of −1.219. For the same molecule, the Activity entry under setting [7] is reported as “no”.
As for `CC1=NN=C(c2ccc(N)cc2)c2cc3c(cc2C1)OCO3` [GYKI 52466 hydrochloride], the “Z Score” value under setting [5] is −1.864. For the same molecule, under setting [3], the Z score is given as −1.864. Moreover, under setting [8], the Activity entry is given as “no”.
For the molecule `CC(C)Cn1c(=O)n(C)c(=O)c2[nH]cnc21` [3-Isobutyl-1-methylxanthine], for the setting “168 h, 3 µM”, the “Z Score” value is given as −0.774 and the Z score is −0.774. In addition, the Activity entry under setting [7] was “no”.
With `CC(=O)NCCc1c[nH]c2ccc(O)cc12` [N-Acetyl-5-hydroxytryptamine], the “Z Score” value under setting [9] is on record as −1.06. Under setting [1], the Z score is −1.060. The Activity entry under setting [2] is on record as “no”.
Regarding `COc1ccccc1OCC(O)CN1CCN(CC(=O)Nc2c(C)cccc2C)CC1` (stereo not drawn) [Ranolazine dihydrochloride], under setting [5], the “Z Score” value is listed as −2.104. Moreover, under setting [3], the Z score is on record as −2.104. Moreover, the Activity entry under setting [10] is recorded as “no”.
In turn, `Cl.Cl.Cn1cnc(CCN)c1` [1-Methylhistamine dihydrochloride] registered a Z score under setting [3] of 0.307. Besides, under setting [8], the Activity result is listed as “no”.
As for `Cl.N[C@@H](CCC(=O)O)C(=O)O` [L-Glutamic acid hydrochloride], the “Z Score” value is reported as −0.4727. The Z score under setting [3] is recorded as −0.473. Also, the Activity result under setting [7] is given as “no”.
Consider MDL 26,630 trihydrochloride, for which the “Z Score” value turned out to be 0.3274. Under setting [3], this molecule returned a Z score of 0.327. Besides, under setting [8], the Activity result was “no”.
As for `O.O.O=c1c(O)c(-c2ccc(O)c(O)c2)oc2cc(O)cc(O)c12` [Quercetin dihydrate], the “Z Score” value was −2.302. The molecule also showed a Z score under setting [3] of −2.302. In addition, the Activity result under setting [10] was “no”.
`Cl.N[C@@H](CCl)C(=O)O` [beta-Chloro-L-alanine hydrochloride]: the “Z Score” value is reported as −1.39. Under setting [6], the Z score is −1.390. Also, the Activity entry under setting [7] is on record as “no”.
In the case of `CCCCC#Cc1nc(N)c2ncn([C@@H]3O[C@H](C(=O)NCC)[C@@H](O)[C@H]3O)c2n1` [HE-NECA], the “Z Score” value is on record as −2.504. Also, the Z score under setting [3] is given as −2.504. In addition, the Activity result under setting [4] was “yes”.
As to `CNCCc1c[nH]c2ccc(O)cc12.O=C(O)C(=O)O`, the “Z Score” value was 0.656. Under setting [3], this molecule had a Z score of 0.656. The Activity entry under setting [8] is recorded as “no”.
`COc1cc2c(cc1C(F)(F)F)N(C(=O)Nc1cc(F)cc(-c3cccnc3)c1)CC2` [SB 228357]: the “Z Score” value came to 0.03426. The molecule further showed a Z score under setting [3] of 0.034. The Activity entry under setting [7] is “no”.
In the case of `O=C(O)C1CCCNC1` (stereo not drawn) [(B1)-Nipecotic acid], the “Z Score” value is on record as −0.7215.
With `CC1=C(/C=C/C(C)=C/C=C/C(C)=C/C(=O)O)C(C)(C)CCC1` [Retinoic acid], under setting [9], the “Z Score” value was −0.8657. This molecule came in with a Z score under setting [3] of −0.866.
On to `CCCCCCCCCCCCC/C=C/[C@@H](O)[C@@H](N)CO` [Sphingosine], for which the “Z Score” value was 1.404. This molecule registered a Z score under setting [3] of 1.404. For the same molecule, the Activity entry under setting [10] was “no”.
With `COC(=O)C(N)Cc1ccc(Cl)cc1.Cl` (racemic) [DL-p-Chlorophenylalanine methyl ester hydrochloride], the “Z Score” value turned out to be 0.1276. Also, the Z score under setting [6] amounted to 0.128. Besides, under setting [7], the Activity entry is recorded as “no”.
